Measurements published in ChEMBL document CHEMBL3227964 (J Med Chem, 1979).
The source made the active and inactive calls. No cut-off for these calls is given here.

What was measured:
Escherichia coli [1] = test: Induction of sensitization to irradiation in Escherichia coli AB1157 under hypoxic condition assessed as reduction in colony formation at 1 mM measured after irradiation; type: functional, organism-based
Escherichia coli [2] = test: Induction of sensitization to irradiation in Escherichia coli AB1157 under oxic condition assessed as reduction in colony formation at 1 mM measured after irradiation; type: organism-based; settings: in vivo, 1000 µM
Escherichia coli [3] = test: Antimicrobial activity against Escherichia coli AB1157 assessed as reduction in colony formation at 1 mM; type: organism-based; settings: in vivo, 1000 µM

Row | SMILES | Activity (Escherichia coli [1]) | Activity (Escherichia coli [2]) | Activity (Escherichia coli [3])
1 | COCC(O)Cn1ccnc1[N+](=O)[O-] (configuration not stated) | Active |  | 
2 | O=[N+]([O-])c1cnc2n1CCO2 | Active | Toxic | Non-toxic
3 | O=[N+]([O-])c1ncn(CCO)c1Cl | Active | Toxic | Non-toxic
